Consider two compounds from patent US20240082221A1, “COMPOSITIONS AND METHODS FOR THE IDENTIFICATION OF COMPOUNDS THAT PROTECT AGAINST LIPOFUSCIN CYTOTOXICITY” (priority 2021, published 2024).

In test [1] the test system is activated microglia/macrophages. Kind of test: Intravitreal treatment of DKO mice, subretinal microglia/macrophage infiltration. The class given is in vivo, ABCA4−/− RDH8−/− double knock-out mice (DKO). The method, then:
Animals. Pigmented ABCA4^−/− RDH8^−/− double knock-out mice (DKO), free of rd8 mutation, were purchased from Jackson laboratories and every 10 generations were in house backcrossed to the C57BL6J control strain, to prevent genetic drifts. Genotyping was performed at Transnetyx (Memphis, TN). Only mice with ABCA4, RDH8, RPE65-Leu450 but no crb1 mutations (retinal degeneration slow) were maintained in the colony. Controls C57BL/6J (Rpe65-Leu450, crb1negative) were also Jackson's lab. All mice were housed at Weill Cornell Medicine's animal facility under a 12 h light (˜10 lux)/12 h dark cycle environment or under complete darkness. Experimental manipulations in the dark were done under dim red light transmitted through a Kodak No. 1 safelight filter (transmittance >560 nm). No retinal degeneration or necroptosis markers were appreciably detected in 20 months or older C57BL6/N (Rpe65-Met450, crb1 positive) obtained from the NAI/NIH. All animal procedures and experiments were approved by the Animal Care and Use Committee of Weill Cornell Medical College in agreement with the guidelines established by the NIH Office of Laboratory Animal Welfare and the Association of Research for Vision and Ophthalmology (ARVO) statement for the use of animals in ophthalmic research. […]
(§1) Pharmacological treatment of mice. […] The exact volume of Mock reagent or Kira6 was determined by 10 μl Hamilton syringe. […]

Another test deals with hfRPE. Nature of the test: Light-independent lipofuscin cell-death/viability assay in hfRPE. The class given is cell-based, Human. As to the method: Cell culture. Human retinal pigment epithelium (ARPE-19) cells were obtained from ATCC and were cultured in Dulbecco's modified Eagle's medium (DMEM) supplemented with 10% FBS and 1% penicillin/streptomycin. Cells were kept in an incubator with 5% C02 and 95% humidified air at 37° C. Human fetal RPE (hfRPE) cells from donors at 16 to 18 weeks gestation were cultured at 37° C., 5% C02 in RPE medium. To grow polarized hfRPE cells, the cells were seeded in 12 well transwell plate in 1% RPE medium with Rock kinase inhibitor for the first week. After the first week, cells were cultured in normal 1% RPE medium for 3 weeks. Cells were used in passage 1.
Real time monitoring of necrotic and apoptotic cell-death.

Another test deals with phospho-MLKL. Nature of the test: Intravitreal treatment of DKO mice, phospho-MLKL immunostaining of retina. Type of test: in vivo, ABCA4−/− RDH8−/− double knock-out mice (DKO). The method, then:
Animals. Pigmented ABCA4^−/− RDH8^−/− double knock-out mice (DKO), free of rd8 mutation, were purchased from Jackson laboratories and every 10 generations were in house backcrossed to the C57BL6J control strain, to prevent genetic drifts. Genotyping was performed at Transnetyx (Memphis, TN). Only mice with ABCA4, RDH8, RPE65-Leu450 but no crb1 mutations (retinal degeneration slow) were maintained in the colony. Controls C57BL/6J (Rpe65-Leu450, crb1negative) were also Jackson's lab. All mice were housed at Weill Cornell Medicine's animal facility under a 12 h light (˜10 lux)/12 h dark cycle environment or under complete darkness. Experimental manipulations in the dark were done under dim red light transmitted through a Kodak No. 1 safelight filter (transmittance >560 nm). No retinal degeneration or necroptosis markers were appreciably detected in 20 months or older C57BL6/N (Rpe65-Met450, crb1 positive) obtained from the NAI/NIH. All animal procedures and experiments were approved by the Animal Care and Use Committee of Weill Cornell Medical College in agreement with the guidelines established by the NIH Office of Laboratory Animal Welfare and the Association of Research for Vision and Ophthalmology (ARVO) statement for the use of animals in ophthalmic research.
RPE and Neural retina flat mounts. Mouse eyes were enucleated and placed in 4% PFA in PBS for 1 h at room temperature. After fixing, a 23G needle was used to make a hole at the limbus area and iris scissors used to cut around the circumference of the limbus, remove the cornea, iris and lens, separate the neuronal retina and sclera by micro-forceps. Neuronal retina and RPE layer were dissected out and incubated with blocking buffer (1% BSA and 0.3% Triton-X-100 in PBS) for at least 20 min. Primary antibodies were added to the blocking buffer and kept at 4° C. overnight. Retina and RPE layer were washed and incubated with secondary antibodies for at least 30 min at room temperature, then washed with PBS three times. Under the dissection microscope, retina or RPE layer was cut into a four-leaf clover shape and mount on the slides in mount medium (EMS glycerol mounting medium with DAPI and DABCO, cat. No. 17989-61). Slides were stored at 4° C. until imaging.
Cryosections and Immunofluorescence staining. Mouse eyes were fixed with 4% PFA and penetrated with 30% sucrose overnight at 4° C., then cryopreserved in Tissue-Tek OCT compound (Sakura Finetek, Torrance, CA, USA) and cut into 15 μm sections. Sections were blocked with 1% BSA and 0.1% Triton-X-100 PBS, and then immunofluorescence staining was performed using standard methods and the appropriate dilutions of primary antibodies against p- p-MLKL (cell signaling), XBP1s (Biogend), Iba-1 (Abcam), CD11b (Millipore), Lamp2 (hybridoma bank), CellRox and DRAQ7 (Invitrogen), Rhodopsin (Abcam), phalloidin-CF660 (Biotium, cat.no. 0052), Hoechst33324, caspase3 (clone9664, Cell signaling). Subsequently, slides were incubated with Alexa-647, Alexa-594 secondary antibodies, and counterstained with Hoechst33324. Negative controls were included in each staining, and slides were mounted with anti-fade mount medium. Slides were stored at 4° C. before analysis on SD microscope using Zen software. For paraffin sections, mouse eyes were embedded in paraffin and cut into 5-μm sections. […]
as §1

In test [2] the test system is EDN2, FGF2, GFAP, SERP, VEGF, CXCL15, XBP1s, SCAND1, CEBPA, HMGA. Kind of test: Intravitreal treatment of DKO mice, qPCR of retinal degeneration markers in whole retina. The class given is in vivo, ABCA4−/− RDH8−/− double knock-out mice (DKO). Particulars: total RNA from whole retina, vs control injected eyes. The method, then:
Pharmacological treatment of mice. KIRA6 (Cayman Chemical, item no. 19151) was injected intravitreously with 1 μL total volume. KIRA6 concentration is 20 μg/ml. The control eye received an equal amount of mock reagent (DMSO). Mouse was weighed and anesthetized with Ketamine cocktail at 10 mg/kg, then mouse eyes were dilated with Tropicamide. The exact volume of Mock reagent or Kira6 was determined by 10 μl Hamilton syringe. Under surgery microscope, mouse eye was placed in the center of the field, 34 gauge of needle was inserted into mouse eye at the Ora serrata and towards ONH. Once the needle was inside the mouse eye, 2 μl of the contents in the Hamilton syringe was injected. The needle was slowly withdrawn to prevent the reflux of the solution. Nec7 (2 μL of 33 mM stock in DMSO) was intravitreally injected in the left eye and an equal amount of vehicle (DMSO) was administered to the right eye. After intravitreal injection, the mouse was placed in a warm place until it completely woke up. […]
RNA isolation and quantitative PCR. […] The total RNA then was reversed transcribed using High-Capacity cDNA Reverse Transcription Kit (ThermoFisher Scientific, cat.no. 4368814) and analyzed gene expression using SYBR Green Master Mix (ThermoFisher Scientific, cat.no. 4472908) in an Applied Biosystems StepOne real time PCR machine. […]
Background: Real-time PCR tracks product formation cycle by cycle.

As for `CC(C)(C)c1nc(-c2ccc(NC(=O)Nc3cccc(C(F)(F)F)c3)c3ccccc23)c2c(N)nccn12` [KIRA6], in test [1] (RPE-flat mounts, center to periphery), the “Iba-1+ cells attached to the apical side of RPE” value is listed as “No Iba-1+ cells were detected”. In addition, the “survival to LF in hfRPE” value in the test on hfRPE is “promote survival to LF”. Further, the “necroptosis, intracellular and plasma membrane pMLKL labelling in RPE flat mounts” value with phospho-MLKL (26 month old DKO mice, intraocular, a week later) is “abrogated necroptosis”. In addition, the “pMLKL/XBP1s double positive cells (RPE and microglia)” value in the test on phospho-MLKL (demelanized paraffin cross-sections, 20 month old DKOs, control 33%) was 4%. Besides, the “mRNA levels of markers for retinal degeneration, inflammation/angiogenesis, ER-stress and necroptosis” value in test [2] is on record as “generalized reduction in all the tested markers”.
As to `N=C1S/C(=C\c2cn[nH]c2-c2ccc(F)cc2)C(=O)N1c1nccs1` [Nec7, Necrostatin 7], the “infiltration of CD11b cells in the subretinal space” value in test [1] (RPE-flat mounts from 25- to 27-month-old DKO mice) is “reduced the infiltration of CD11b cells”. Also, the “survival to LF in hfRPE” value in the test with hfRPE was “promote survival to LF”. Further, the “membrane and cytosolic pMLKL labeling in RPE flat mounts” value in the test with phospho-MLKL (12 month old DKOs, single intraocular injection, analyzed one week later) was “reduced to undetectable levels”. In the test with phospho-MLKL (26-month-old DKO mice, 2 μl intraocular, a week later), the “membrane and cytosolic phospho-MLKL staining in RPE flat mounts” value is “reduced membrane and cytosolic phospho-MLKL staining to undetectable levels”. Also, the “phospho-MLKL (necroptosis) labeling in neuroretina-flat mounts” value in the test on phospho-MLKL (DKO mice, intraocular, 1 week earlier) is recorded as “significantly reduced”.
